Several values for one entry are separate records, joined by “and”; a condition that tells them apart may be missing. Equal entries are not always repeated.
What was measured:
OAT1h = molecular target: T1, OAT1h (Homo sapiens, UniProt Q4U2R8); test: uptake/accumulation in 293 cells expressing OAT1h; format: cell-based; conditions: for clearance: 1 min uptake, 0.1 μmol/l radiotracer
T1 construct: expressed in transfected cells; host or cells: 293 cells (HEK-293), pEBTetD plasmid, doxycycline-inducible
T1 sequence (Q4U2R8 1-550 isoform Q4U2R8-2): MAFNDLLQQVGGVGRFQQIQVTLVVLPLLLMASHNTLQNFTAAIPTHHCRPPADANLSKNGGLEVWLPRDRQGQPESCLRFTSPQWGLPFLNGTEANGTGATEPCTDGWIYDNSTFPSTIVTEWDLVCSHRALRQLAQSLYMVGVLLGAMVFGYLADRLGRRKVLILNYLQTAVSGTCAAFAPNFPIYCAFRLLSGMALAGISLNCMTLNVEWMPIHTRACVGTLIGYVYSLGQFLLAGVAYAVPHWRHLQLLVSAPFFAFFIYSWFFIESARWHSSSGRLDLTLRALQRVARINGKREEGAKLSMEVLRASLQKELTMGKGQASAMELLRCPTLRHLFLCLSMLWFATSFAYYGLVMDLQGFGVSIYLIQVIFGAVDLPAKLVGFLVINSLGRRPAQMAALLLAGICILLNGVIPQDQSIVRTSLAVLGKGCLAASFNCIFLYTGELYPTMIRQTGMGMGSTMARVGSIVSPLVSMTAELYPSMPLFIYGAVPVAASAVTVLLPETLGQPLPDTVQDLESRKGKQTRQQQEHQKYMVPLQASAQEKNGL
Experimental: The trigonelline content of cell lysates was determined by LC-MS/MS. […] 293 cells transfected with pEBTetD plasmids for the expression of SLC22 family carriers as indicated were grown in dishes and incubated overnight with (expression on) or without (off) doxycyclin in standard culture medium. Cells were washed with uptake buffer, incubated (1 min, 37° C.) in uptake buffer with or without 10 μmol/l unlabeled trigonelline, washed, and lysed.
For measurement of solute uptake, cells were grown in surface culture on 60 mm polystyrol dishes (Nunclon 150288, Nunc, Roskilde, Denmark) precoated with 0.1 g/l poly-L-ornithine in 0.15 M boric acid-NaOH, pH 8.4. Cells were used for uptake experiments at a confluence of at least 70%. Uptake was measured at 37° C. Uptake buffer contains 125 mmol/l NaCl, 25 mmol/l HEPES-NaOH pH 7.4, 5.6 mmol/l (+)glucose, 4.8 mmol/l KCl, 1.2 mmol/l KH2PO4, 1.2 mmol/l CaCl2, and 1.2 mmol/l MgSO4. In glutamate efflux experiments, uptake buffer without KH2PO4 was used to avoid MS interference. After preincubation for at least 20 minutes in 4 ml of uptake buffer, the buffer was replaced with 2 ml of substrate in uptake buffer. The total substrate concentration if not indicated otherwise was 0.1 μmol/l for radiotracer assays and 10 μmol/l for unlabeled compounds. Incubation was stopped after 1 min by rinsing the cells four times each with 4 ml ice-cold uptake buffer. Radioactivity was determined, after cell lysis with 0.1% v/v Triton X-100 in 5 mmol/l TRIS-HCl pH 7.4, by liquid scintillation counting. For LCelectrospray ionization-MS/MS analysis, cells were lysed with methanol and stored at −20° C.
After centrifugation (1 min, 16000×g, 20° C.) of thawed lysates, 100 μl of the supernatant was mixed with either 10 μl unlabeled MPP+ iodide (0.5 ng/μl) or biphenyl-4-carboxylic acid (Sigma-Aldrich) as internal standard. Of this mixture, […] were analyzed by LCMS/MS on a triple quadrupole mass spectrometer (4000 Q TRAP, Applied Biosystems, Darmstadt, Germany). […] For quantification (scan time 150 ms), the optimal collision energy for argon-induced fragmentation in the second quadrupole was determined for each analyte. […] Sample analyte content was calculated from the analyte response ratio and the slope of the calibration curve, obtained by linear regression. With LC-MS quantitation, solute content of cell lysates was determined for 4 conditions (paired dishes, incubation time 1 min): a) transporter expression on, uptake buffer; b) expression off, uptake buffer; c) expression on, substrate in uptake buffer; d) expression off, substrate in uptake buffer. Acute uptake mediated by heterologously expressed carrier was then calculated as (c−a)−(d−b). […] Protein was measured by the BCA assay (Pierce) with bovine serum albumin as standard. […]

OAT2r = molecular target: T2, OAT2r (Rattus norvegicus, UniProt Q5RLM2); test: 1 min uptake into 293 cells expressing OAT2 from rat; format: cell-based; conditions: for clearance: 1 min uptake, 0.1 μmol/l radiotracer; for uptake after preloading with orotic acid (factor f): 1 h preincubation ±100 μmol/l unlabeled orotic acid, 3H-orotic acid 0.1 μmol/l 1 min, trigonelline 10 μmol/l 5 min;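 for all read-outs here: uptake at 37 °C, read by liquid scintillation counting or LC-ESI-MS/MS, carrier-mediated part as induced-minus-uninduced expression difference corrected for baseline content, protein by BCA assay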
T2 construct: expressed in transfected cells
T2 sequence (Q5RLM2 1-535): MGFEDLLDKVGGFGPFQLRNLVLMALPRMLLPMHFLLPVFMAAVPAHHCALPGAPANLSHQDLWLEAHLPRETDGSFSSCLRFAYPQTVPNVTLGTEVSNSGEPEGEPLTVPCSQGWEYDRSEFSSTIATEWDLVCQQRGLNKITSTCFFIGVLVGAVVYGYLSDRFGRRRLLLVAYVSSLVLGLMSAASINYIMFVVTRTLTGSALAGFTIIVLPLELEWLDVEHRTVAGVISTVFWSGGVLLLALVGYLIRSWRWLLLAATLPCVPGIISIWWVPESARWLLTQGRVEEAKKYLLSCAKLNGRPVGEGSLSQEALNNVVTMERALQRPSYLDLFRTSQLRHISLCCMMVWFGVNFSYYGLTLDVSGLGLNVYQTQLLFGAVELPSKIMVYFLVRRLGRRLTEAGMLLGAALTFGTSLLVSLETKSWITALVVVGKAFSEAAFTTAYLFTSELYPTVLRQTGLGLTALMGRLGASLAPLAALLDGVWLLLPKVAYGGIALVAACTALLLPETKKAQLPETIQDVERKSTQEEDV
Experimental: Cells were used for uptake experiments at a confluence of at least 70%. Uptake was measured at 37° C. […] After preincubation for at least 20 minutes in 4 ml of uptake buffer, the buffer was replaced with 2 ml of substrate in uptake buffer. The total substrate concentration if not indicated otherwise was 0.1 μmol/l for radiotracer assays and 10 μmol/l for unlabeled compounds. Incubation was stopped after 1 min by rinsing the cells four times each with 4 ml ice-cold uptake buffer. Radioactivity was determined, after cell lysis with 0.1% v/v Triton X-100 in 5 mmol/l TRIS-HCl pH 7.4, by liquid scintillation counting. For LCelectrospray ionization-MS/MS analysis, cells were lysed with methanol and stored at −20° C.
After centrifugation (1 min, 16000×g, 20° C.) of thawed lysates, 100 μl of the supernatant was mixed with either 10 μl unlabeled MPP+ iodide (0.5 ng/μl) or biphenyl-4-carboxylic acid (Sigma-Aldrich) as internal standard. […] Atmospheric pressure ionization with positive or negative electrospray was used. For quantification (scan time 150 ms), the optimal collision energy for argon-induced fragmentation in the second quadrupole was determined for each analyte. […] Linear calibration curves were constructed from at least six standards which were prepared using control cell lysates as solvent. Sample analyte content was calculated from the analyte response ratio and the slope of the calibration curve, obtained by linear regression. With LC-MS quantitation, solute content of cell lysates was determined for 4 conditions (paired dishes, incubation time 1 min): a) transporter expression on, uptake buffer; b) expression off, uptake buffer; c) expression on, substrate in uptake buffer; d) expression off, substrate in uptake buffer. Acute uptake mediated by heterologously expressed carrier was then calculated as (c−a)−(d−b). This approach takes into account endogenous solute content and non-specific uptake. Protein was measured by the BCA assay (Pierce) with bovine serum albumin as standard. The protein content of MS samples was estimated from 3 matched cell dishes.

Compound	transport of glutamate (in words) (OAT1h)	clearance (OAT1h) [μl min-1 mg protein-1]	clearance (OAT2r; sodium-free buffer) [μl min-1 mg protein-1]	clearance (OAT2r; standard uptake buffer)	uptake after preloading with orotic acid (factor f) (OAT2r)	factor of uptake reduction on average (OAT2r; sodium chloride replaced by choline, lithium or potassium chloride, or magnesium and calcium omitted)	accumulation of trigonelline upon carrier expression (in words) (OAT1h; expression of OAT1 in 293 cells, FIG. 14)	carrier-mediated clearance (OAT2r; initial rate 1 min, 37° C., 10 μmol/l, LC-MS/MS, uptake buffer in the expression period) [μl min-1 mg protein-1]
N[C@@H](CCC(=O)O)C(=O)O [glutamate]	do not transport	2.5±0.4	24±1	35±3 μl min-1 mg protein-1	–	–	–	–
O=C(O)c1cc(=O)[nH]c(=O)[nH]1 [orotic acid]	–	1.6±0.1	–	106±4 μl min-1 mg protein-1 and 106 μl min-1 mg protein-1	0.7	0.75	–	–
C[n+]1cccc(C(=O)[O-])c1 [trigonelline]	–	–	–	–	0.7	–	without effect	4.8±0.5
